One experiment relates to A. baumannii. It is filed as cell-based, Acinetobacter baumannii. The following applies: LB, 30° C., anaerobic. The protocol: (§1) In certain embodiments the MIC assays are performed as described herein in the Examples. For each organism, the media and growth conditions utilized is detailed in Table 8.
(§2) In certain embodiments the MIC assays are performed as follows: For each organism, the media and growth conditions utilized is detailed in Table 8.

The subject of the next experiment is MRSA. The experiment is classed as cell-based, Methicillin-resistant Staphylococcus aureus. The protocol:
as §1, §2

In a further experiment the test system is B. subtilis. It is filed as cell-based, Bacillus subtilis. The protocol: as §1, §2
The next experiment relates to S. pneumoniae. It is filed as cell-based, Streptococcus pneumoniae. The following applies: TSB supplemented with 5% yeast extract, 37° C., 10% CO2. The protocol:
as §1, §2

For a further experiment, the system named is A. niger. It is filed as cell-based, Aspergillus niger. The protocol: as §1, §2
Another experiment relates to T. rubrum. The experiment is classed as cell-based, Trichophyton rubrum. As to conditions: T. rubrum; Potato Dextrose Agar, 25° C., aerobic. As for the experimental part:
as §1, §2

In another experiment the test system is M. furfur. Kind of experiment: MIC assay, M. furfur. The experiment is classed as cell-based, Malassezia furfur. The following applies: ATCC medium 1072, 37° C., aerobic. The protocol:
as §1, §2

Another experiment relates to P. aeruginosa. The experiment is classed as cell-based, Pseudomonas aeruginosa. As to conditions: MH, 37° C., aerobic. The protocol: as §1, §2
A further experiment relates to S. epidermidis. It is filed as cell-based. As to conditions: BHI supplemented with 0.25% glucose, 37° C., aerobic. As for the experimental part:
as §1, §2

The test system of the next experiment is S. mutans. The experiment is classed as cell-based, Streptococcus mutans. As to conditions: TH supplemented with 1% sucrose, 37° C., anaerobic. As for the experimental part: as §1, §2
In a further experiment the test system is P. gingivalis. The experiment is classed as cell-based, Porphyromonas gingivalis. As to conditions: Columbia broth, 37° C., anaerobic. The protocol: as §1, §2

Converted amounts (≈) assume the structure as drawn. Read-outs that look alike come from different tables or passages of the source. Peptide text beside a SMILES is read from it.

As usually defined, the MIC is the lowest concentration found to suppress growth. For `CC[C@H](C)[C@H](NC(=O)CNC(=O)[C@@H](N)CCSC)C(=O)N[C@H](C(=O)N[C@@H](C)C(=O)NCC(=O)N[C@H](C(=O)N[C@H](C(=O)N[C@@H](CCCCN)C(=O)N[C@@H](Cc1ccccc1)C(=O)N[C@H](C(=O)N[C@@H](CCCCN)C(=O)NCC(=O)N[C@@H](CC(C)C)C(=O)N[C@H](C(=O)N[C@@H](CCC(=O)O)C(=O)N[C@@H](CCCCN)C(=O)N[C@@H](Cc1ccccc1)C(=O)N[C@H](C(=O)NCC(=O)N[C@@H](CCCCN)C(=O)O)[C@@H](C)O)[C@@H](C)CC)[C@@H](C)CC)[C@@H](C)CC)[C@@H](C)CC)[C@@H](C)CC` [PF-006], the MIC with A. baumannii was found to be 50 µM (≈ 114 µg/mL); in the experiment on MRSA (MRSA, BHI supplemented with 2% glucose, 37° C., aerobic) it was 50 µM (≈ 114 µg/mL); in the experiment on B. subtilis (B. subtilis, BHI, 30° C., aerobic), 25 µM (≈ 56.9 µg/mL).

Take `CC(C)C[C@H](NC(=O)CNC(=O)[C@@H](N)CC(C)C)C(=O)N[C@H](C(=O)N[C@@H](C)C(=O)NCC(=O)N[C@H](C(=O)N[C@@H](C)C(=O)N[C@@H](Cc1ccc(O)cc1)C(=O)N[C@@H](C)C(=O)N[C@@H](C)C(=O)N[C@@H](CCC(N)=O)C(=O)N1CCC[C@H]1C(=O)N[C@H](C(=O)N[C@@H](CC(N)=O)C(=O)N[C@@H](CCC(N)=O)C(=O)N1CCC[C@H]1C(=O)N[C@H](C(=O)N[C@@H](CC(N)=O)C(=O)N[C@@H](CCC(N)=O)C(=O)N1CCC[C@H]1C(=O)N[C@H](C(=O)N[C@@H](CC(N)=O)C(=O)N[C@@H](CCC(N)=O)C(=O)N1CCC[C@H]1C(=O)N[C@H](C(=O)N[C@@H](CC(N)=O)C(=O)N[C@@H](CCC(N)=O)C(=O)N1CCC[C@H]1C(=O)N[C@H](C(=O)N[C@@H](CC(N)=O)C(=O)N[C@@H](CCC(N)=O)C(=O)N1CCC[C@H]1C(=O)N[C@H](C(=O)N[C@@H](CC(N)=O)C(=O)N[C@@H](CCC(N)=O)C(=O)N1CCC[C@H]1C(=O)N[C@@H](CCCNC(=N)N)C(=O)N[C@@H](Cc1c[nH]c2ccccc12)C(=O)O)[C@@H](C)O)[C@@H](C)O)[C@@H](C)O)[C@@H](C)O)[C@@H](C)O)[C@@H](C)O)C(C)C)[C@@H](C)O` [PF-520] (H-LGLTAGVAYAAQPTNQPTNQPTNQPTNQPTNQPTNQPRW-OH; N-terminus and C-terminus assumed): the MIC in the experiment on S. pneumoniae came to 50 µM (≈ 211 µg/mL).

Regarding `CC[C@H](C)[C@H](NC(=O)[C@H](CCCNC(=N)N)NC(=O)[C@@H](NC(=O)[C@H](CCCCN)NC(=O)[C@H](CCCCN)NC(=O)[C@H](CC(C)C)NC(=O)[C@H](CC(C)C)NC(=O)[C@H](CCCCN)NC(=O)[C@H](CCCNC(=N)N)NC(=O)[C@H](Cc1c[nH]cn1)NC(=O)[C@H](CCCCN)NC(=O)[C@H](CCCCN)NC(=O)[C@H](CCCCN)NC(=O)[C@H](C)NC(=O)[C@H](CCSC)NC(=O)[C@H](CCCNC(=N)N)NC(=O)[C@H](CCCCN)NC(=O)[C@H](CCCNC(=N)N)NC(=O)[C@H](CCCNC(=N)N)NC(=O)[C@H](CCCCN)NC(=O)[C@H](CCCCN)NC(=O)[C@@H](NC(=O)[C@@H](NC(=O)[C@H](CO)NC(=O)CN)C(C)C)[C@@H](C)CC)[C@@H](C)O)C(=O)N[C@@H](CCC(N)=O)C(=O)N[C@@H](CCCNC(=N)N)C(=O)N[C@@H](CCCNC(=N)N)C(=O)N[C@@H](CCCNC(=N)N)C(=O)N[C@@H](C)C(=O)NCC(=O)N[C@@H](CCCCN)C(=O)O` [PF-527] (H-GSVIKKRRKRMAKKKHRKLLKKTRIQRRRAGK-OH; N-terminus and C-terminus assumed), the minimum inhibitory concentration (MIC) against A. niger (A. niger, Potato Dextrose Agar, 25° C., aerobic) came to 50 µM (≈ 197 µg/mL); against T. rubrum, 25 µM (≈ 98.5 µg/mL).

Regarding `CC[C@H](C)[C@H](NC(=O)[C@H](CCCNC(=N)N)NC(=O)[C@H](CCCNC(=N)N)NC(=O)[C@H](CCCNC(=N)N)NC(=O)[C@@H](NC(=O)[C@H](CCSC)NC(=O)[C@H](CC(=O)O)NC(=O)[C@H](C)NC(=O)[C@H](CCSC)NC(=O)[C@H](C)NC(=O)[C@@H](NC(=O)[C@H](CC(C)C)NC(=O)[C@H](CCCCN)NC(=O)[C@H](CO)NC(=O)[C@H](CCC(=O)O)NC(=O)[C@@H](N)CCCNC(=N)N)[C@@H](C)CC)[C@@H](C)CC)C(=O)O` [PF-545] (H-RESKLIAMADMIRRRI-OH; N-terminus and C-terminus assumed), the MIC against MRSA was determined as 50 µM (≈ 98 µg/mL); in the experiment with A. niger, 50 µM (≈ 98 µg/mL); in the experiment with B. subtilis it was 25 µM (≈ 49 µg/mL).

In the case of `CC[C@H](C)[C@H](NC(=O)[C@@H](NC(=O)[C@H](CO)NC(=O)CN)C(C)C)C(=O)N[C@@H](CCCCN)C(=O)N[C@@H](CCCCN)C(=O)N[C@@H](CCCNC(=N)N)C(=O)N[C@@H](CCCNC(=N)N)C(=O)N[C@@H](CCCCN)C(=O)N[C@@H](CCCNC(=N)N)C(=O)N[C@@H](CCSC)C(=O)N[C@@H](CO)C(=O)N[C@@H](CCCCN)C(=O)N[C@@H](CCCCN)C(=O)N[C@@H](CCCCN)C(=O)N[C@@H](Cc1c[nH]cn1)C(=O)N[C@@H](CCCNC(=N)N)C(=O)N[C@@H](CCCCN)C(=O)N[C@@H](CCSC)C(=O)N[C@@H](CC(C)C)C(=O)N[C@@H](CCCNC(=N)N)C(=O)N[C@@H](CCCNC(=N)N)C(=O)N[C@H](C(=O)N[C@@H](CCCNC(=N)N)C(=O)N[C@H](C(=O)N[C@@H](CCC(N)=O)C(=O)N[C@@H](CCCNC(=N)N)C(=O)N[C@@H](CCCNC(=N)N)C(=O)N[C@@H](CCCCN)C(=O)N[C@@H](CC(C)C)C(=O)NCC(=O)N[C@@H](CCCCN)C(=O)O)C(C)C)[C@@H](C)O` [PF-S028], the MIC against M. furfur worked out at 2.5 µM (≈ 10.1 µg/mL); with P. aeruginosa, 50 µM (≈ 202 µg/mL); against S. epidermidis it was 25 µM (≈ 101 µg/mL); against T. rubrum, 50 µM (≈ 202 µg/mL); in the experiment with S. mutans, 50 µM (≈ 202 µg/mL); in the experiment with P. gingivalis, 25 µM (≈ 101 µg/mL).

(Values after patent US8303962B2, “Antibacterial and antifungal peptides” (C3 Jian, Inc., priority 2009, dated 2012).)
